Measurements: patent US20250195521A1 (Revolution Medicines, Inc., priority 2020, published 2025)

tested on: NCI-H358 (K-Ras G12C); assay: CellTiter-Glo cell viability assay, NCI-H358; assay type: cell-based, human; details: 5-day treatment; read-out: H358 Cell Viability assay data (K-Ras G12C, IC50)
Protocol: Determination of Cell Viability in RAS Mutant Cancer Cell Lines Protocol: CellTiter-Glo® Cell Viability Assay
Note—The following protocol describes a procedure for monitoring cell viability of K-Ras mutant cancer cell lines in response to a compound of the invention. Other RAS isoforms may be employed, though the number of cells to be seeded will vary based on cell line used.
Test compounds (132.5 nL) were directly dispensed into the assay plates containing cells. […] On day 5, assay plates and their contents were equilibrated to room temperature for approximately 30 minutes. […] Luminescence was measured using the PerkinElmer Enspire. Data were normalized by the following: (Sample signal/Avg. DMSO)*100. The data were fit using a four-parameter logistic fit.

Row | IC50 [µM] | Compound
1 | 0.01 to 0.1 | C=CC(=O)N1CC[C@H](C(=O)N(C)[C@H](C(=O)N[C@H]2Cc3cc(O)cc(c3)-c3ccc4c(c3)c(c(-c3cccnc3)n4C(C)(C)C#N)CC(C)(C)COC(=O)[C@@H]3CCCN(N3)C2=O)C(C)C)C1 [Compound A74]
2 | < 0.01 | C=CC(=O)N1CC[C@H](C(=O)N(C)[C@H](C(=O)N[C@H]2Cc3cc(O)cc(c3)-c3ccc4c(c3)c(c(-c3cnccc3[C@H](C)OC)n4CC)CC(C)(C)COC(=O)[C@@H]3CCCN(N3)C2=O)C(C)C)C1 [Compound A112]
3 | > 10 | C=CC(=O)N1CC[C@H](C(=O)N(C)[C@H](C(=O)N[C@H]2Cc3cccc(c3)-c3ccc4c(c3)c(c(-c3cnccc3[C@H](C)OC)n4CC)CC(C)(C)COC(=O)[C@@H]3CCCN(N3)C2=O)C(C)C)C1 [Compound A122]

same assay, conditions: Homo sapiens, NCI-H358, 120 h, 5-day treatment; read-out: H358 Cell Viability assay data (K-Ras G12C, IC50)

Row | Compound | IC50 [µM]
4 | CCn1c(-c2cnccc2COC)c2c3cc(ccc31)-c1cc(O)cc(c1)C[C@H](NC(=O)[C@H](C(C)C)N(C)C(=O)[C@H]1CCN(C(=O)C(C)C)C1)C(=O)N1CCC[C@H](N1)C(=O)OCC(C)(C)C2 [Compound A29] | 0.1 to 1
5 | C=CC(=O)N1CC[C@H](C(=O)N(C)[C@H](C(=O)N[C@H]2Cc3cc(O)cc(c3)-c3ccc4c(c3)c(c(-c3ccc5c(c3)CCN(C)C5)n4CC)CC(C)(C)COC(=O)[C@@H]3CCCN(N3)C2=O)C(C)C)C1 [Compound A40] | 0.01 to 0.1
6 | CCn1c(-c2ccccc2CN(C)C)c2c3cc(ccc31)-c1cc(O)cc(c1)C[C@H](NC(=O)[C@H](C(C)C)N(C)C(=O)c1ccc(NC(=O)/C=C/CN(C)C)cn1)C(=O)N1CCC[C@H](N1)C(=O)OCC(C)(C)C2 [Compound A46] | > 10
7 | CCn1c(-c2cnccc2COC)c2c3cc(ccc31)-c1cc(O)cc(c1)C[C@H](NC(=O)[C@@H](OC(=O)N(C)C)C(C)C)C(=O)N1CCC[C@H](N1)C(=O)OCC(C)(C)C2 [Compound A53] | 0.1 to 1
8 | C=CC(=O)N1CC[C@H](C(=O)N(C)[C@H](C(=O)N[C@H]2Cc3cc(O)cc(c3)-c3ccc4c(c3)c(c(-c3cncnc3)n4CC)CC(C)(C)COC(=O)[C@@H]3CCCN(N3)C2=O)C(C)C)C1 [Compound A61] | 0.01 to 0.1
9 | CCn1c(-c2ccccc2COC)c2c3cc(ccc31)-c1cc(O)cc(c1)C[C@H](NC(=O)[C@H](C(C)C)N(C)C(=O)[C@H]1CCN(C(=O)/C=C/CN(C)C)C1)C(=O)N1CCC[C@H](N1)C(=O)OCC(C)(C)C2 [Compound A79] | 0.01 to 0.1
10 | C=CC(=O)N1CC[C@H](C(=O)N(C)[C@H](C(=O)N[C@H]2Cc3cc(O)cc(c3)-c3cc4c(c(-c5ccccc5CCOC)n(CC)c4cn3)CC(C)(C)COC(=O)[C@@H]3CCCN(N3)C2=O)C(C)C)C1 [Compound A102] | > 10
11 | C=CC(=O)N1CCN(C(=O)N(C)[C@H](C(=O)N[C@H]2Cc3cc(O)cc(c3)-c3ccc4c(c3)c(c(-c3ccccc3CCOC)n4CC)CC(C)(C)COC(=O)[C@@H]3CCCN(N3)C2=O)C(C)C)C[C@@H]1COC [Compound A125] | > 10
12 | CCn1c(-c2cnccc2[C@H](C)OC)c2c3cc(ccc31)-c1cccc(c1)C[C@H](NC(=O)[C@H](C1CCCC1)N(C)C(=O)[C@H]1CCN(C(=O)C#CCN(C)C)C1)C(=O)N1CCC[C@H](N1)C(=O)OCC(C)(C)C2 [Compound A133] | < 0.01
13 | C=CC(=O)N1CC[C@H](C(=O)N(C)[C@H](C(=O)N[C@H]2Cc3cc(ccn3)-c3ccc4c(c3)c(c(-c3cccnc3COC)n4CC)CC(C)(C)COC(=O)[C@@H]3CCCN(N3)C2=O)C(C)C)C1 [Compound A136] | > 10
14 | C=CC(=O)N1CC[C@H](C(=O)N(C)[C@H](C(=O)N[C@H]2Cc3cc(O)cc(c3)-c3ccc4c(c3)c(c(-c3cc(CN(C)C)cnc3COC)n4CC)CC(C)(C)COC(=O)[C@@H]3CCCN(N3)C2=O)C(C)C)C1 [Compound A149] | 0.01 to 0.1
15 | C=CC(=O)N1CC[C@H](C(=O)N(C)[C@H](C(=O)N[C@H]2Cc3cc(O)cc(c3)-c3ccc4c(c3)c(c(-c3cccnc3)n4C3CC3)CC(C)(C)COC(=O)[C@@H]3CCCN(N3)C2=O)C(C)C)C1 [Compound A160] | 0.1 to 1
16 | C=CC(=O)N1CC(NC[C@H](C(=O)N[C@H]2Cc3cc(O)cc(c3)-c3ccc4c(c3)c(c(-c3cccnc3COC)n4CC)CC(C)(C)COC(=O)[C@@H]3CCCN(N3)C2=O)C(C)C)C1 [Compound A174] | > 10
17 | C=CC(=O)N1CC[C@H](C(=O)N(C)[C@H](C(=O)N[C@H]2Cc3cc(O)cc(c3)-c3ccc4c(c3)c(c(-c3cncnc3)n4CC)CC(C)(C)COC(=O)[C@@H]3CCCN(N3)C2=O)C(C)C)O1 [Compound A180] | > 10
18 | CCn1c(-c2cncnc2)c2c3cc(ccc31)-c1cccc(c1)[C@@H](OC)[C@H](NC(=O)[C@H](C(C)C)N(C)C(=O)[C@H]1CCN(C(=O)C#CCN3CCOCC3)C1)C(=O)N1CCC[C@H](N1)C(=O)OCC(C)(C)C2 [Compound A208] | > 10
19 | CCn1c(-c2ccccc2CN(C)C)c2c3cc(ccc31)-c1cc(O)cc(c1)C[C@H](NC(=O)[C@H](C(C)C)N(C)Cc1ccc(NC(=O)/C=C/CN(C)C)cn1)C(=O)N1CCC[C@H](N1)C(=O)OCC(C)(C)C2 [Compound A213] | > 10

Second part, the compound after the results:

Row | IC50 [µM] | Compound
20 | 0.1 to 1 | CCn1c(-c2cnccc2COC)c2c3cc(ccc31)-c1cc(O)cc(c1)C[C@H](NC(=O)[C@H](C(C)C)N(C)C(=O)[C@H]1CCN(C=O)C1)C(=O)N1CCC[C@H](N1)C(=O)OCC(C)(C)C2 [Compound A17, (2S)—N-[(8S,14S)-22-ethyl-4-hydroxy-21-[4-(methoxymethyl)pyridin-3-yl]-18,18-dimethyl-9,15-dioxo-16-oxa-10,22,28-triazapentacyclo [18.5.2.1^2,6.1^10,14.0^23,27]nonacosa-1 (26), 2,4,6 (29),20,23 (27),24-heptaen-8-yl]-2-{1-[(3S)-1-formylpyrrolidin-3-yl]-N-methylformamido}-3-methylbutanamide]
21 | 0.01 to 0.1 | C=CC(=O)N1CC[C@H](C(=O)N(C)[C@H](C(=O)N[C@H]2Cc3cc(O)cc(c3)-c3ccc4c(c3)c(c(-c3ccc(C5CCN(C)CC5)cc3)n4CC)CC(C)(C)COC(=O)[C@@H]3CCCN(N3)C2=O)C(C)C)C1 [Compound A39]
22 | 0.1 to 1 | C=CC(=O)N1CC[C@@]2(CCCN([C@H](C(=O)N[C@H]3Cc4cc(O)cc(c4)-c4ccc5c(c4)c(c(-c4ccccc4CCOC)n5CC)CC(C)(C)COC(=O)[C@@H]4CCCN(N4)C3=O)C(C)C)C2=O)C1 [Compound A63]
23 | > 10 | CCn1c(-c2cccnc2COC)c2c3cc(ccc31)-c1cc(O)cc(c1)C[C@H](NC(=O)[C@H](C(C)C)N(C)C(=O)[C@H]1CCN(C(=O)/C=C/CN3CCN(C)CC3)C1)C(=O)N1CCC[C@H](N1)C(=O)OCC(C)(C)C2 [Compound A72]
24 | < 0.01 | C=CC(=O)N1CC[C@H](C(=O)N(C)[C@H](C(=O)N[C@H]2Cc3cc(O)cc(c3)-c3ccc4c(c3)c(c(-c3cnccc3[C@H](C)OC)n4CC)CC(C)(C)COC(=O)[C@@H]3CCCN(N3)C2=O)C(C)C)C1 [Compound A76]
25 | 0.1 to 1 | CCn1c(-c2cnccc2COC)c2c3cc(ccc31)-c1cc(O)cc(c1)C[C@H](NC(=O)[C@H](C(C)C)N(C)C(=O)C1CCN(C)CC1)C(=O)N1CCC[C@H](N1)C(=O)OCC(C)(C)C2 [Compound A84]
26 | > 10 | CCn1c(-c2ccccc2CN(C)C)c2c3cc(ccc31)-c1cc(O)cc(c1)C[C@H](NC(=O)[C@H](C(C)C)N(C)C(=O)c1nc(NC(=O)/C=C/CN(C)C)cs1)C(=O)N1CCC[C@H](N1)C(=O)OCC(C)(C)C2 [Compound A90]
27 | < 0.01 | CCn1c(-c2cccnc2[C@H](C)OC)c2c3cc(ccc31)-c1cccc(c1)C[C@H](NC(=O)[C@H](C(C)C)N(C)C(=O)[C@H]1CCN(C(=O)CN(C)C)C1)C(=O)N1CCC[C@H](N1)C(=O)OCC(C)(C)C2 [Compound A96]
28 | > 10 | CCn1c(-c2ccccc2CN(C)C)c2c3cc(ccc31)-c1cc(O)cc(c1)C[C@H](NC(=O)[C@@H](C(C)C)N(C)C(=O)c1ncc(NC(=O)/C=C/CN(C)C)n1C)C(=O)N1CCC[C@H](N1)C(=O)OCC(C)(C)C2 [Compound A126]
29 | > 10 | C/C=C(\C#N)C(=O)N1CC[C@H](C(=O)N(C)[C@H](C(=O)N[C@H]2Cc3cc(O)cc(c3)-c3ccc4c(c3)c(c(-c3cccnc3COC)n4CC)CC(C)(C)COC(=O)[C@@H]3CCCN(N3)C2=O)C(C)C)C1 [Compound A178]
30 | > 10 | C=CC(=O)N1CC[C@@H](C(=O)N(C)[C@H](C(=O)N[C@H]2Cc3cc(O)cc(c3)-c3ccc4c(c3)c(c(-c3cncnc3)n4CC)CC(C)(C)COC(=O)[C@@H]3CCCN(N3)C2=O)C(C)C)O1 [Compound A179]
31 | < 0.01 | CCn1c(-c2cccnc2[C@H](C)OC)c2c3cc(ccc31)-c1cc(O)cc(c1)C[C@H](NC(=O)[C@H](C(C)C)N(C)C(=O)[C@H]1CCN(C(=O)C#CCN3CCOCC3)C1)C(=O)N1CCC[C@H](N1)C(=O)OCC(C)(C)C2 [Compound A182]
32 | > 10 | COCc1ncccc1-c1nc2ccc3cc2n1CC(C)(C)COC(=O)[C@@H]1CCCN(N1)C(=O)[C@@H](NC(=O)[C@H](C(C)C)N(C)C(=O)[C@H]1CCN(C(=O)C#CCN2CCOCC2)C1)Cc1cc(O)cc-3c1 [Compound A188]
33 | > 10 | CCn1c(-c2cccnc2COC)c2c3cc(ccc31)-c1cc(O)cc(c1)C[C@H](NC(=O)[C@H](C(C)C)N(C)C(=O)[C@H]1CCN(C(=O)C#CCN3CCN(C)CC3)C1)C(=O)N1CCC[C@H](N1)C(=O)OCC(C)(C)C2 [Compound A189]

same assay, conditions: Homo sapiens, NCI-H358, 120 h, read-out: H358 Cell Viability assay data (K-Ras G12C, IC50, uM), 5-day treatment

Row | Compound | IC50 [µM]
34 | C=CC(=O)N1CC[C@H](C(=O)N(C)[C@H](C(=O)N[C@H]2Cc3cc(O)cc(c3)-c3ccc4c(c3)c(c(-c3cc(C)cnc3[C@H](C)OC)n4CC)CC(C)(C)COC(=O)[C@@H]3CCCN(N3)C2=O)C(C)C)C1 [Compound A167] | < 0.01

same assay, conditions: read-out: H358 Cell Viability assay data (K-Ras G12C, IC50); 5-day treatment

Row | IC50 [µM] | Compound
35 | > 10 | CC#CC(=O)N1CC[C@H](C(=O)N(C)[C@@H](C(=O)N[C@H]2Cc3cc(O)cc(c3)-c3ccc4c(c3)c(c(-c3cccnc3[C@H](C)OC)n4CC)CC(C)(C)COC(=O)[C@@H]3CCCN(N3)C2=O)C(C)C)C1 [Compound A198]
